Key:
Type in all cases: in vivo, Sprague Dawley rats
STZ DNP rats [1] = assay: Thermal hyperalgesia rescue assay (hot plate paw withdrawal latency), Example B1; set-up: key to Efficacy: rescue of thermal hyperalgesia behavior as measured by paw withdrawal latency: NS indicates treatment did not significantly affect paw withdrawal latency vs disease control.; + indicates p < 0.05 vs disease control.; ++ indicates p < 0.01 vs disease control.; +++ indicates p < 0.001 vs disease control; conditions: for Efficacy: rescue of thermal hyperalgesia behavior as measured by paw withdrawal latency: study day 28 after 14 days of treatment, hot plate 52.5° C., p vs disease control
Experimental: (§1) A series of studies were performed to determine the ability of HGF/MET positive modulator compounds to reduce the mechanical allodynia pain behaviors in hyperglycemic rats. A single dose of STZ (55 mg/kg via intravenous (IV)) was administered to induce a Type I diabetic hyperglycemia in male Sprague Dawley rats. Hyperglycemia was confirmed 4 days after STZ administration, with blood glucose levels above 200 mg/dL considered successful model induction. 14 days after disease induction, test compound treatment was initiated and continued as daily compound administration over the remaining course of the study. Route and dose for each compound were determined by pharmacokinetic and distribution modelling. Control groups included animals with no diabetic induction (Sham control), animals with diabetes but treated only with formulation vehicle (DNP (diabetic peripheral neuropathy) control), and disease animals treated with pregabalin (30 mg/kg via PO), which is known to reduce neuropathic pain behaviors.
(§2) Changes to neuropathic pain behaviors were assessed after 14 days of compound treatment on study day 28. Mechanical allodynia was tested by placing each animal on an elevated wire grid and stimulating the plantar surface of the right rear paw with a series of filaments corresponding to increasing orders of force, reaching a maximum force of 60 grams (Aesthesio manual Von Frey filaments). The force of the filament that causes paw withdrawal was considered the paw withdrawal threshold in grams. Pain sensitivity in response to thermal hyperalgesia was determined by using hot plate method and represented as paw withdrawal latency (PWL). Rats were placed on the hot plate (52.5° C.), and the time taken to show the nocifensive behavior (either licking or jumping) of any of their paws was recorded. Statistical comparison of treatment groups to DNP control groups was performed by one-way ANOVA followed by Dunnett's multiple comparisons test.

[2] = tested on: rat model of STZ-induced DNP; assay: Comparison of dosing schedules, mechanical allodynia (von Frey filaments), Example B2; set-up: key to Efficacy: rescue of mechanical allodynia behavior as measured by paw withdrawal threshold: NS indicates treatment did not significantly affect paw withdrawal threshold vs DNP control.; + indicates p < 0.05 vs DNP control.; ++ indicates p < 0.01 vs DNP control.; +++ indicates p < 0.001 vs DNP control; conditions: for Efficacy: rescue of mechanical allodynia behavior as measured by paw withdrawal threshold: p vs DNP control
Experimental: (§3) An additional series of studies were performed to compare the ability of Compound 1a to reduce mechanical allodynia and thermal hyperalgesia pain behaviors in hyperglycemic rats dosed once or twice daily. Briefly, a single dose of STZ (55 mg/kg via intravenous (IV)) was administered to induce a Type I diabetic hyperglycemia in male Sprague Dawley rats. Hyperglycemia was confirmed 4 days after STZ administration, with blood glucose levels above 200 mg/dL considered successful model induction. Development of a painful phenotype was confirmed 14 days after STZ administration through assessments of both mechanical allodynia and thermal hyperalgesia. Starting 15 days after disease induction, Compound 1a (8 mg/kg) was orally administered once (QD) or twice (Q12h) daily from day 15 to day 41. Control groups included animals with no diabetic induction (Sham control) and animals with diabetes but treated only with formulation vehicle (DNP [diabetic peripheral neuropathy] control).
(§4) Mechanical allodynia and thermal hyperalgesia were assessed as described in Example B1. Briefly, on study days 21, 27, 35, and 41, mechanical allodynia and thermal hyperalgesia were assessed one-hour post-dose using von Frey filaments (1.4, 4, 10, 15, 26, 48, and 60 g) and the hot plate test (52.5° C.), respectively. Pain level was also measured on day 48 following a 7-day compound-free washout to evaluate the persistence of the effects of administration of Compound 1a.

STZ DNP rats [3] = assay: Mechanical allodynia rescue assay (Von Frey paw withdrawal threshold), Example B1; set-up: key to Efficacy: rescue of mechanical allodynia behavior as measured by paw withdrawal threshold: NS indicates treatment did not significantly affect paw withdrawal threshold vs disease control.; + indicates p < 0.05 vs disease control.; ++ indicates p < 0.01 vs disease control.; +++ indicates p < 0.001 vs disease control; conditions: for Efficacy: rescue of mechanical allodynia behavior as measured by paw withdrawal threshold: study day 28 after 14 days of treatment, p vs disease control
Excerpt: Hyperglycemic rats consistently develop neuropathic pain-associated behaviors including mechanical allodynia. Allodynia refers to a type of neuropathic pain characterized by increased sensitivity to stimuli that are not normally painful. Mechanical allodynia is quantified in rats by determination of the force required to induce a withdrawal of the paw and is negatively associated with allodynia such that, the lower the force required to induce paw withdrawal, the greater the pain behavior.
as §1, §2

[4] = tested on: rat model of STZ-induced DNP; assay: Comparison of dosing schedules, thermal hyperalgesia (hot plate test), Example B2; set-up: key to Efficacy: rescue of thermal hyperalgesia behavior as measured by paw withdrawal latency: NS indicates treatment did not significantly affect paw withdrawal latency vs DNP control.; + indicates p < 0.05 vs DNP control.; ++ indicates p < 0.01 vs DNP control.; +++ indicates p < 0.001 vs DNP control; conditions: for Efficacy: rescue of thermal hyperalgesia behavior as measured by paw withdrawal latency: p vs DNP control
Experimental: as §3, §4

[5] = 8 mg/kg PO Q12 h from day 15 to day 41, Day 21, one-hour post-dose
[6] = 8 mg/kg PO Q12 h from day 15 to day 41, Day 27, one-hour post-dose
[7] = 8 mg/kg PO Q12 h from day 15 to day 41, Day 48, after 7-day compound-free washout
[8] = 8 mg/kg PO QD from day 15 to day 41, Day 21, one-hour post-dose
[9] = 8 mg/kg PO QD from day 15 to day 41, Day 27, one-hour post-dose
[10] = 8 mg/kg PO QD from day 15 to day 41, Day 48, after 7-day compound-free washout
[11] = 8 mg/kg PO QD or Q12h, starting on day 27
[12] = day 48, after 7-day compound-free washout

CCC(C)CN1CC2N(C(=O)c3ccc(C(F)(F)F)cc3)CCC(=O)N2[C@@H](C)C1=O (some centres unmarked) [Compound 1a]
Efficacy: rescue of thermal hyperalgesia behavior as measured by paw withdrawal latency (STZ DNP rats [1]; 0.05 mg/kg PO daily): NS | Efficacy: rescue of thermal hyperalgesia behavior as measured by paw withdrawal latency (STZ DNP rats [1]; 0.2 mg/kg PO daily): NS | Efficacy: rescue of thermal hyperalgesia behavior as measured by paw withdrawal latency (STZ DNP rats [1]; 2 mg/kg PO daily): +++ (+++ indicates p < 0.001 vs disease control.) | Efficacy: rescue of thermal hyperalgesia behavior as measured by paw withdrawal latency (STZ DNP rats [1]; 8 mg/kg PO daily): +++ (+++ indicates p < 0.001 vs disease control.) | rescue of thermal allodynia behavior as measured by paw withdrawal latency (STZ DNP rats [1]; STZ DNP rats): significant rescue | Efficacy: rescue of mechanical allodynia behavior as measured by paw withdrawal threshold [2, 5]: NS | Efficacy: rescue of mechanical allodynia behavior as measured by paw withdrawal threshold [2, 6]: ++ (++ indicates p < 0.01 vs DNP control.) | Efficacy: rescue of mechanical allodynia behavior as measured by paw withdrawal threshold [2, 7]: +++ (+++ indicates p < 0.001 vs DNP control.) | Efficacy: rescue of mechanical allodynia behavior as measured by paw withdrawal threshold [2, 8]: NS | Efficacy: rescue of mechanical allodynia behavior as measured by paw withdrawal threshold [2, 9]: ++ (++ indicates p < 0.01 vs DNP control.) | Efficacy: rescue of mechanical allodynia behavior as measured by paw withdrawal threshold [2, 10]: NS | reversal of the increase in pain-related behaviors, mechanical allodynia [2, 11]: effectively reversed | persistence of pain-reducing effects, mechanical allodynia [2, 12]: sustained | Efficacy: rescue of mechanical allodynia behavior as measured by paw withdrawal threshold (STZ DNP rats [3]; 0.05 mg/kg PO daily): NS | Efficacy: rescue of mechanical allodynia behavior as measured by paw withdrawal threshold (STZ DNP rats [3]; 0.2 mg/kg PO daily): NS | Efficacy: rescue of mechanical allodynia behavior as measured by paw withdrawal threshold (STZ DNP rats [3]; 2 mg/kg PO daily): +++ (+++ indicates p < 0.001 vs disease control.) | Efficacy: rescue of mechanical allodynia behavior as measured by paw withdrawal threshold (STZ DNP rats [3]; 8 mg/kg PO daily): +++ (+++ indicates p < 0.001 vs disease control.) | rescue of the mechanical allodynia behavior as measured by paw withdrawal threshold (STZ DNP rats [3]; STZ DNP rats): significant rescue | Efficacy: rescue of thermal hyperalgesia behavior as measured by paw withdrawal latency [4, 5]: NS | Efficacy: rescue of thermal hyperalgesia behavior as measured by paw withdrawal latency [4, 6]: + (+ indicates p < 0.05 vs DNP control.) | Efficacy: rescue of thermal hyperalgesia behavior as measured by paw withdrawal latency [4, 7]: +++ (+++ indicates p < 0.001 vs DNP control.) | Efficacy: rescue of thermal hyperalgesia behavior as measured by paw withdrawal latency [4, 8]: NS | Efficacy: rescue of thermal hyperalgesia behavior as measured by paw withdrawal latency [4, 9]: + (+ indicates p < 0.05 vs DNP control.) | Efficacy: rescue of thermal hyperalgesia behavior as measured by paw withdrawal latency [4, 10]: +++ (+++ indicates p < 0.001 vs DNP control.) | reversal of the increase in pain-related behaviors, thermal allodynia [4, 11]: effectively reversed | persistence of pain-reducing effects, thermal allodynia [4, 12]: sustained
